Here are results for 22 compounds from PubChem BioAssay (NCI).

In general, TGI refers to the concentration at which net growth stops. For orientation: GI50 means the concentration giving 50% growth inhibition.

Each structure is given as a SMILES string.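 Values below derive from 48-hour exposures of cells grown in 96-well plates, with endpoints linearly interpolated between the two concentrations bracketing the appropriate inhibition level. GI50: concentration for 50% inhibition of growth. TGI denotes the concentration required for complete inhibition of growth.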

Common to all, as to assay: DTP human tumour cell line panel, 48 h
The subject of assay [1] is A549 NSCLC.
For assay [2], the system named is DU-145 prostate.
The subject of assay [3] is HL-60(TB) leukemia.
In assay [4] the test system is HOP-92 NSCLC.
In assay [5] the test system is MDA-MB-231 breast.
In assay [6] the test system is MOLT-4 leukemia.
For assay [7], the system named is NCI-H23 lung.
Assay [8] deals with RPMI-8226 leukemia.
Assay [9] deals with SF-295 CNS.
In assay [10] the test system is EKVX NSCLC.
The test system of assay [11] is HOP-62 NSCLC.
The subject of assay [12] is PC-3 prostate.

With `CC1(O)/C(=N/O)CC2CC1C2(C)C` (stereo not given), the TGI in [1], in assay [2], in assay [3], in assay [4], in assay [5] and in assay [6] was over 100 µM each time. Also, the TGI in assay [7], in [8] and in assay [9] was over 100 µM throughout.
Take `OC1CC(O)c2c(Cl)sc(Cl)c21` (stereo not given): the concentration for total growth inhibition (TGI) in [1] is 89.2 µM; in [2], over 100 µM; in assay [10], over 100 µM; in assay [3] it was over 100 µM; in assay [11] it was 98.4 µM; in assay [4], 56.2 µM. Further, the TGI in assay [5] was over 100 µM; in assay [6], over 100 µM; in assay [7], 67.3 µM; in [9] it was 87.3 µM.
For the compound `O=c1cc(-c2cccc(OC(F)(F)F)c2)[nH]c2cc3c(cc12)OCO3`, the TGI in assay [1] is over 100 µM; in assay [2], over 100 µM; in assay [10], over 100 µM; in [3], 0.0315 µM; in assay [11], over 47.8 µM; in [4], over 73.6 µM. For the same compound, the TGI in [6] is over 100 µM; in [7], over 100 µM; in assay [12], over 100 µM; in assay [8], 0.271 µM.
Consider `S=C(Nc1cccc(Cl)c1)Nc1ccccn1`, for which the TGI in assay [1], in assay [2], in assay [10], in assay [3], in assay [11] and in assay [6] was over 100 µM each time. Also, the TGI in assay [12], in assay [8] and in assay [9] was over 100 µM in each case.
With `COC(=O)N/N=C/c1oc(-c2cccc([N+](=O)[O-])c2)c(-c2cccc([N+](=O)[O-])c2)c1[N+](=O)[O-]`, the TGI in [1] is over 100 µM; in assay [10], over 100 µM; in assay [3], 55.4 µM; in assay [11] it was over 100 µM; in [4], over 100 µM; in [6] it was 89.9 µM. The TGI in assay [7], in assay [8] and in [9] was over 100 µM throughout.
With `COC(=O)c1c(C(=O)OC)c2cc(C(=O)c3ccccc3)ccn2c1Cl`, the TGI in assay [1] is over 100 µM; in [10], over 100 µM; in [3] it was 54.2 µM; in assay [11] it was over 100 µM; in assay [6], 51.5 µM; in assay [7], 88.1 µM. Also, the TGI is 51.7 µM in assay [8] and 85.2 µM in assay [9].
Turning to `COc1ccc(C2C(Cl)C(=O)N2NC(=O)Cc2ccccc2)cc1` (stereo not given), the TGI in [1], in assay [10], in [3], in assay [11], in [6] and in [7] was over 100 µM throughout. For the same compound, the TGI in [8] and in assay [9] was over 100 µM each time.
Regarding `O=C1CCCC2=C1CC1=C(CCCC1=O)N2c1cccc2ccccc12`, the TGI in assay [1], in [10], in assay [3], in assay [4], in assay [6] and in [7] was over 100 µM in each case. The TGI in assay [12] and in [8] was over 100 µM throughout.
Regarding `[N-]=[N+]=NC1C(Br)C(=O)NC(=O)N1[C@H]1C[C@H](O)[C@@H](CO)O1` (stereo not given in full), the TGI in [1], in [10], in assay [3], in assay [11], in assay [4] and in assay [6] was over 100 µM throughout. In addition, the TGI in assay [7], in [8] and in [9] was over 100 µM each time. Moreover, in assay [8], the GI50 is 19.6 µM.
As to `CNC(=O)CCNC(=O)CCC(=O)OC`, the TGI in [1], in assay [2], in assay [11], in [5], in [6] and in assay [7] was over 100 µM in each case. The TGI in [12] and in assay [9] was over 100 µM each time.
Consider `COC[n+]1cc2cc(OC)c(OC)cc2c2ccc3cc(OC)c(OC)cc3c21`, for which the TGI in assay [1], in [10], in assay [3], in [11], in assay [4] and in assay [6] was over 100 µM in each case. The TGI in [7], in assay [8] and in assay [9] was over 100 µM each time.
`CCN(CC)Cc1cc(Nc2c3ccccc3nc3c2[nH]c2ccccc23)ccc1O`: the TGI is 2.93 µM in assay [1]; 6.32 µM in assay [10]; 3.16 µM in assay [11]; 3.46 µM in [4]; over 100 µM in assay [6]; 2.8 µM in assay [7]. The TGI in assay [8] is 5.83 µM; in assay [9], 2.83 µM.
For the compound `COC12C=CC(CC1)C1C(=O)c3c(C)c(C)n(C)c3C(=O)C12` (stereo not given), the TGI in assay [2], in assay [10], in assay [11], in [6], in assay [7] and in [12] was over 100 µM each time. Besides, the TGI in assay [8] and in [9] was over 100 µM in each case.
Turning to `N#CC12C3C4CC5C6C4C1C6C(O)(C53)N2Cc1ccccc1` (stereo not given), the concentration for total growth inhibition (TGI) in assay [1], in [10], in [3], in [11], in assay [4] and in assay [6] was over 100 µM each time. The TGI in [7], in assay [8] and in assay [9] was over 100 µM in each case.
As to `COc1cc2[nH]c(-c3cccc(N(C)C)c3)cc(=O)c2cc1OC`, the TGI in assay [1] is over 100 µM; in [10], over 100 µM; in assay [3] it was over 24.6 µM; in assay [11], over 100 µM; in [4] it was over 100 µM; in [6], over 100 µM. Also, the TGI in assay [7] is over 100 µM; in assay [8] it was over 100 µM; in assay [9] it was over 21.4 µM.
With `O=C(c1ccncc1)n1nc(-c2ccccc2)c(N=Nc2ccc([N+](=O)[O-])cc2)c1-c1ccccc1`, the concentration for total growth inhibition (TGI) in assay [1] is over 100 µM; in assay [10], 45.8 µM; in assay [3] it was over 100 µM; in assay [11], over 100 µM; in [4] it was over 100 µM; in [6] it was over 100 µM. In addition, the TGI in assay [7], in [8] and in assay [9] was over 100 µM in each case.
For `CC1=NN(C(=O)Cc2ccccc2)C(=O)/C1=C\C=C\c1ccccc1`, the TGI in assay [1], in assay [10], in [3], in [11], in assay [6] and in assay [7] was over 100 µM in each case. Besides, the concentration for total growth inhibition (TGI) in assay [8] and in assay [9] was over 100 µM each time.
As for `Cc1cc2oc(=O)[nH]c(=S)c2c(C)c1C`, the TGI in assay [1], in [10], in [3], in assay [11], in assay [4] and in [6] was over 100 µM throughout. Moreover, the TGI in assay [7], in assay [8] and in [9] was over 100 µM throughout.
Take `CCOC(=O)CC[C@@H](NC(=O)c1ccc(N[C@@H]2c3cc4c(cc3C(c3cc(OC)c(O)c(OC)c3)C3C(=O)OC[C@@H]32)OCO4)cc1)C(=O)OCC` (stereo not given in full): the TGI is 0.0799 µM in assay [10]; 0.05 µM in assay [3]; 0.0424 µM in assay [11]; 0.0808 µM in assay [4]; over 10 µM in assay [6]; 0.0424 µM in [7]. Also, the TGI in [8] is over 10 µM; in [9], 0.0497 µM.
For `COc1ccc(CN(CCc2c[nH]c3ccccc23)Cc2ccc(OC)cc2)cc1`, the TGI in assay [1] was over 31.7 µM; in assay [2], 32.9 µM; in assay [10] it was 20.5 µM; in assay [11] it was 11.3 µM; in assay [4], 9.85 µM; in assay [6], over 100 µM. Besides, the TGI in assay [7] was 10.5 µM; in assay [12], 13 µM; in assay [8], over 41.9 µM; in [9], 5.78 µM.
Consider `CC1NC(/C(=C/c2ccccc2O)NC(=O)c2ccccc2)OC1=O` (stereo not given), for which the TGI in [1] was over 50 µM; in assay [10], over 50 µM; in [3], over 50 µM; in assay [11], over 50 µM; in assay [4], 46.6 µM; in assay [5], over 50 µM. Besides, the TGI in assay [6], in assay [7], in assay [12], in [8] and in [9] was over 50 µM in each case.
On to `CC(C)(C)[C@H]1CO[C@]2(C)[C@@H]3C[C@@H]3C(=O)N12`, for which the TGI in [1], in assay [10], in assay [3], in assay [11], in assay [4] and in [7] was over 100 µM in each case. Besides, the TGI in [8] and in [9] was over 100 µM in each case.
